Test results taken from a compilation of properties of binary mixtures (doi:10.1016/j.molliq.2012.02.014).

Assay: xn = mol fraction of the nth substance listed
Settings: 101 kPa

CN(CCO)CCO + CCCCCC[n+]1ccn(C)c1.O=S(=O)([N-]S(=O)(=O)C(F)(F)F)C(F)(F)F
x1 = 1
Settings | viscosity [mPa·s]
308.15 K | 46.2
323.15 K | 24.7

CCCCCC[n+]1ccn(C)c1.O=S(=O)([N-]S(=O)(=O)C(F)(F)F)C(F)(F)F + CN(CCO)CCO
viscosity [mPa·s]
Settings | x2 = 0 | x2 = 0.0989 | x2 = 0.1899 | x2 = 0.2977 | x2 = 0.3999 | x2 = 0.4988 | x2 = 0.6075 | x2 = 0.7049 | x2 = 0.801 | x2 = 0.899
303.15 K | – | 52.4 | 46.6 | 40.8 | 37 | 35.1 | 39 | 44.3 | – | 55.1
308.15 K | 50.4 | – | 42.1 | 38 | – | 31.3 | 33.7 | 37.4 | 40.8 | 43.7
313.15 K | 41.4 | 39.2 | 36.7 | 34 | – | 29.8 | – | 31.8 | 34.3 | –
318.15 K | 35 | 33.1 | 30.8 | 27.9 | 25.4 | 23.9 | 23.8 | – | 27.3 | 28.9
323.15 K | 28.8 | 27.7 | 26 | – | 22.8 | 22.1 | 22.4 | – | 23.7 | 24.4
